Assay results as given in ChEMBL document CHEMBL4393714, “Multi-targeting protein-protein interaction inhibitors: Evolution of macrocyclic ligands with embedded carbohydrates (MECs) to improve selectivity” (Eur J Med Chem, 2019).

Experiments:
[1] = target: 5-hydroxytryptamine receptor 2A (Homo sapiens, UniProt P28223); test: Displacement of [3H] ketanserin from human recombinant 5-HT2A receptor measured after 60 mins by scintillation counter method
[2] = target: Galanin receptor type 2 (Homo sapiens) (UniProt O43603); test: Displacement of [125I]galanin from human recombinant GAL2 receptor at 10 uM measured after 120 mins by scintillation counter method relative to control
Galanin receptor type 2 (Homo sapiens), sequence (O43603 whole entry): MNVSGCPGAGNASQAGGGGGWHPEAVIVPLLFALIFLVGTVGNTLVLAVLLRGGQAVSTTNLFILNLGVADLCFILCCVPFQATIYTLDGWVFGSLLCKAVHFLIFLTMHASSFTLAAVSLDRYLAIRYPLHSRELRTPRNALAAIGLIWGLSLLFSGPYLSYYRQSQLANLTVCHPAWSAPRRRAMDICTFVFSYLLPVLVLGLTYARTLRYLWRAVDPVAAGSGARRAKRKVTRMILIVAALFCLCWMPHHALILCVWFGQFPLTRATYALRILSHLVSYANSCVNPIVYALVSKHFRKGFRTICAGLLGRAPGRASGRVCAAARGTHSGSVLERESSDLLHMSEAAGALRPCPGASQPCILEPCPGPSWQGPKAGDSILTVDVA

[3] = target: T1, 5-hydroxytryptamine receptor 2B (Homo sapiens, UniProt P41595); test: Antagonist activity at human recombinant 5-HT2B receptor in CHOK1 cells measured after 30 mins by HTRF assay; assay type: cell-based
T1 sequence (P41595 whole entry): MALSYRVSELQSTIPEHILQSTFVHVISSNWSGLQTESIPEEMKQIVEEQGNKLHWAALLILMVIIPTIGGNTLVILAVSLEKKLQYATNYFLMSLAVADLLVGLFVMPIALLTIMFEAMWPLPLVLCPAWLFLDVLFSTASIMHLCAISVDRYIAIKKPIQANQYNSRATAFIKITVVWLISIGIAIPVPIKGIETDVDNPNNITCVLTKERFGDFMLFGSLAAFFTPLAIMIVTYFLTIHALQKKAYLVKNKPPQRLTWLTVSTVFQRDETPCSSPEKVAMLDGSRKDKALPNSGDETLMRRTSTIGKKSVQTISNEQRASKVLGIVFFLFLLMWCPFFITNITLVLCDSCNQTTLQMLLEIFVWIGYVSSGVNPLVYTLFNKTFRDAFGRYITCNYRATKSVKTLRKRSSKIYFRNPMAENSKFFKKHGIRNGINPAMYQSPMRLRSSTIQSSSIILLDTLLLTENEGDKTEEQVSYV

[4] = target: Sodium-dependent serotonin transporter (Homo sapiens, UniProt P31645); test: Displacement of [3H] imipramine from human recombinant 5-HT transporter measured after 60 mins by scintillation counter method
Sodium-dependent serotonin transporter, sequence (P31645 whole entry): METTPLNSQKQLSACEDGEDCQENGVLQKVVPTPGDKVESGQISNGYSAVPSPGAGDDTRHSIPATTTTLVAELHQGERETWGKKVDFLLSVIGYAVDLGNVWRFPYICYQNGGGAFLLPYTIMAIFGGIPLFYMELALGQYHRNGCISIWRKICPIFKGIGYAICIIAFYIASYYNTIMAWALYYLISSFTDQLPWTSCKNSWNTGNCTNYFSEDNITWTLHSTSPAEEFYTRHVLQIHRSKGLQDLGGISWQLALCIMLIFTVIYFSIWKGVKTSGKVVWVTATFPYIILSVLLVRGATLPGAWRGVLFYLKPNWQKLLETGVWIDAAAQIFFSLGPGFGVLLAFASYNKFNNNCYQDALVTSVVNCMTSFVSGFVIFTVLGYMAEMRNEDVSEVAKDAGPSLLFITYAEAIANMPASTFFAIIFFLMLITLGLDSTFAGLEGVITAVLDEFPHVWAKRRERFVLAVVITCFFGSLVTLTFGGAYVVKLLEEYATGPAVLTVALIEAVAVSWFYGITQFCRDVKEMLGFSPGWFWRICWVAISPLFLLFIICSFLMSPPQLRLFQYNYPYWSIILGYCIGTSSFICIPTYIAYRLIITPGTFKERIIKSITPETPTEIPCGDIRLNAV

[5] = target: Adrenergic receptor alpha-2 (Rattus norvegicus) (UniProt P22086+P19328+P22909); test: Displacement of [3H] RX 821002 from rat alpha2 adreno receptor at 10 uM measured after 60 mins by scintillation counter method relative to control; assay type: protein assay
[6] = target: Muscarinic acetylcholine receptor M1 (Homo sapiens) (UniProt P11229); test: Displacement of [3H]pirenzepine from human recombinant muscarinic 1 receptor at 10 uM measured after 60 mins by scintillation counter method relative to control
Muscarinic acetylcholine receptor M1 (Homo sapiens), sequence (P11229 whole entry): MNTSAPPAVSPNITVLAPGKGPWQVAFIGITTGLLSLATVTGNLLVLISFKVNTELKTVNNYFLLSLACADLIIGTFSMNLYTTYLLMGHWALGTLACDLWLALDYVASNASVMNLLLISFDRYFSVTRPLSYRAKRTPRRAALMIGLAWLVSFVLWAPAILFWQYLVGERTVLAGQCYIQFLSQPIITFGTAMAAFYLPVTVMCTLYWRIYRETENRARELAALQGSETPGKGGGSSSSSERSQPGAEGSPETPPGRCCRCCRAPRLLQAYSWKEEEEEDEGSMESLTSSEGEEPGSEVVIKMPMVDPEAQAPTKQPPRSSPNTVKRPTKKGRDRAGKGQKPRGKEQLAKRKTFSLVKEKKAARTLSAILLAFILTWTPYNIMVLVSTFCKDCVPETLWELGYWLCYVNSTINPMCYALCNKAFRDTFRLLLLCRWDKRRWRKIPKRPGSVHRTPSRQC

[7] = target: T1, 5-hydroxytryptamine receptor 2B; test: Displacement of [125I](+/-)DOI from human recombinant 5-HT2B receptor at 10 uM measured after 60 mins by scintillation counter method relative to control
[8] = target: Muscarinic acetylcholine receptor M3 (Homo sapiens) (UniProt P20309); test: Displacement of [3H]4-DAMP from human recombinant muscarinic 3 receptor at 10 uM measured after 60 mins by scintillation counter method relative to control
Muscarinic acetylcholine receptor M3 (Homo sapiens), sequence (P20309 whole entry, looked up): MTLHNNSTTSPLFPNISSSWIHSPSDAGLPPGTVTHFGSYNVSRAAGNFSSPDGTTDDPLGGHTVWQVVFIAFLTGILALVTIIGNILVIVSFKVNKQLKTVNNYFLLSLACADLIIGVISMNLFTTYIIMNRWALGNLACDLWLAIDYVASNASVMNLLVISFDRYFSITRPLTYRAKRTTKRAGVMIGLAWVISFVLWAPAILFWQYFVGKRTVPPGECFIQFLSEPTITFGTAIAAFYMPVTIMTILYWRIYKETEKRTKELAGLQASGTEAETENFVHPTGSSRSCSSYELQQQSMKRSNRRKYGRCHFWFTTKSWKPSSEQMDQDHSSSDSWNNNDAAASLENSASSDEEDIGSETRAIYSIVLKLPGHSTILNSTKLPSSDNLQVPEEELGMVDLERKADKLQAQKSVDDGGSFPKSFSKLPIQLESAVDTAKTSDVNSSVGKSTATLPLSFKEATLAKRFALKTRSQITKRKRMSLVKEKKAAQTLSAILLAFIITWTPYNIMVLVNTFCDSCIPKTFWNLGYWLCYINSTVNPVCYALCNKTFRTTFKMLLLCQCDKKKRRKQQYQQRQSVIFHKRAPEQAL

[9] = Displacement of [3H] batrachotoxinin from rat sodium channel site 2 measured after 60 mins by scintillation counter method
[10] = target: Cholecystokinin receptor type A (Homo sapiens) (UniProt P32238); test: Displacement of [125I]CCK-8s from human recombinant CCK1 receptor at 10 uM measured after 60 mins by scintillation counter method relative to control
Cholecystokinin receptor type A (Homo sapiens), sequence (P32238 whole entry): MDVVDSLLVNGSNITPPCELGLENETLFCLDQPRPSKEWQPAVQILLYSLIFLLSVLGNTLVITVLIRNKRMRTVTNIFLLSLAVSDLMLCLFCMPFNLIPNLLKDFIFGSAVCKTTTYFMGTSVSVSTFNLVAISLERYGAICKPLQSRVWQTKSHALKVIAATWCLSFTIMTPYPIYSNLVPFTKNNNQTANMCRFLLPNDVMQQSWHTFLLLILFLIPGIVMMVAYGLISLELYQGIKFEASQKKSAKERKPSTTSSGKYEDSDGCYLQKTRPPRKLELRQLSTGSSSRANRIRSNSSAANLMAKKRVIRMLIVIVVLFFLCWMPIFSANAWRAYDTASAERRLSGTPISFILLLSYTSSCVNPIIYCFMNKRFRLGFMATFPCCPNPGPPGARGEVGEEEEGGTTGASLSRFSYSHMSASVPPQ

5-hydroxytryptamine receptor 2A, sequence (P28223 whole entry): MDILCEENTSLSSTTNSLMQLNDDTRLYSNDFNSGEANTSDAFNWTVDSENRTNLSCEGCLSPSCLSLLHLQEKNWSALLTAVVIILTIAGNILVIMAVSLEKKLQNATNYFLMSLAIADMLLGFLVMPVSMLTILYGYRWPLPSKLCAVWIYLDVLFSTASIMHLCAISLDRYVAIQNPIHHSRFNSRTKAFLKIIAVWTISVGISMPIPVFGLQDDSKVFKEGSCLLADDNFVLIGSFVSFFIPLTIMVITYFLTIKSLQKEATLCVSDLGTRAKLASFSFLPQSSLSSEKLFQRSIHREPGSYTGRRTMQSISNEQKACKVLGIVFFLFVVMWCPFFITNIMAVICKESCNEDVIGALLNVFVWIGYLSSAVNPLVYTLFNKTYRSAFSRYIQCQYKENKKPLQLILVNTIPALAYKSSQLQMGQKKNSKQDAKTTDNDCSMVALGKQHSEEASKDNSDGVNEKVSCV

`CC(C)CCO[C@@H]1[C@H]2OC(C)(C)O[C@H]2[C@H]2Cn3cc(nn3)COCCCCCCN(CCc3ccc4ccccc4c3)CC[C@H]1O2` gave an IC50 [1] of 1800 nM, a Ki [1] of 970 nM and an Activity [2] of 17.4%. The IC50 [3] was 1600 nM, the Ki [3] was 870 nM and the IC50 [4] was 7400 nM. The Ki [4] was 3400 nM, the inhibition [5] was 5% and the inhibition [6] was 31%. It also gave an inhibition [7] of 81.6%, an inhibition [8] of 41.2% and an IC50 [9] of 120 nM. It also gave a Ki [9] of 100 nM and an inhibition [10] of 61.4%.
